Assay results reported in PMC11904993, “Humanized Candida and NanoBiT Assays Expedite Discovery of Bdf1 Bromodomain Inhibitors With Antifungal Potential” (Advanced Science, 2025).
Values joined by “and” are separate entries in the source; they are usually repeats but may differ in a detail not shown here. Identical values can stand only once. Like-named read-outs stand apart in the source and are kept apart here.

Experiments:
CgBdf1 BD1 = CgBdf1 BD1 (Candida glabrata, UniProt Q6FWV7); test: HTRF assay, inhibition of H4ac4 peptide binding; design: species or system C. glabrata; details: for HTRF signal, normalized (Figure 5A data): 240 min
Sequence of CgBdf1 BD1 (Q6FWV7 entry or part of it): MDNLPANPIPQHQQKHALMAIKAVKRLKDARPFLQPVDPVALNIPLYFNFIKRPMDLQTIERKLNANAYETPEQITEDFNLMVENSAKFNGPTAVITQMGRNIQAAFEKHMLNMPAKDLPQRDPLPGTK

CaBdf1 BD1 = molecular target: T1, CaBdf1 BD1 (Candida albicans, UniProt Q5A4W8); test: HTRF assay, inhibition of H4ac4 peptide binding; design: species or system C. albicans
T1 construct: BD1 (residues 193–327) and BD2 (residues 361–501) from CaBdf1 (Uniprot ID Q5A4W8); made in house; host or cells: E. coli BL21(DE3)
T1 sequence (Q5A4W8 193-327): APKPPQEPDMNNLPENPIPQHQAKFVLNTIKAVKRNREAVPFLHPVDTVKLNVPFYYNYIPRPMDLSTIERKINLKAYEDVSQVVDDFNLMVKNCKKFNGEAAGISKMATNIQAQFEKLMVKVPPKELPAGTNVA

C. auris Bdf1 BD1 = C. auris Bdf1 BD1 (Candidozyma auris (Candida auris), UniProt A0AAW0VEM6); test: HTRF assay, inhibition of H4ac4 peptide binding
Sequence of C. auris Bdf1 BD1 (A0AAW0VEM6 entry or part of it): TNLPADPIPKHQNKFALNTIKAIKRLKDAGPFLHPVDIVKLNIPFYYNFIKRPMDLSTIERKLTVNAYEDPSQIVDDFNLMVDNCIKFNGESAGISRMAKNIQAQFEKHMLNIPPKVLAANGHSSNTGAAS

[1] = molecular target: T2, Bdf1‐SmBiT/H2A.Z‐LgBiT pair (Saccharomyces cerevisiae, UniProt P35817); test: NanoBiT assay; assay type: cell-based, S. cerevisiae; design: remaining activity: dose or concentration left out as unconfirmed
T2 construct: expressed in transfected cells; host or cells: S. cerevisiae (H2A.Z-LgBiT strain)
T2 sequence (P35817 whole entry): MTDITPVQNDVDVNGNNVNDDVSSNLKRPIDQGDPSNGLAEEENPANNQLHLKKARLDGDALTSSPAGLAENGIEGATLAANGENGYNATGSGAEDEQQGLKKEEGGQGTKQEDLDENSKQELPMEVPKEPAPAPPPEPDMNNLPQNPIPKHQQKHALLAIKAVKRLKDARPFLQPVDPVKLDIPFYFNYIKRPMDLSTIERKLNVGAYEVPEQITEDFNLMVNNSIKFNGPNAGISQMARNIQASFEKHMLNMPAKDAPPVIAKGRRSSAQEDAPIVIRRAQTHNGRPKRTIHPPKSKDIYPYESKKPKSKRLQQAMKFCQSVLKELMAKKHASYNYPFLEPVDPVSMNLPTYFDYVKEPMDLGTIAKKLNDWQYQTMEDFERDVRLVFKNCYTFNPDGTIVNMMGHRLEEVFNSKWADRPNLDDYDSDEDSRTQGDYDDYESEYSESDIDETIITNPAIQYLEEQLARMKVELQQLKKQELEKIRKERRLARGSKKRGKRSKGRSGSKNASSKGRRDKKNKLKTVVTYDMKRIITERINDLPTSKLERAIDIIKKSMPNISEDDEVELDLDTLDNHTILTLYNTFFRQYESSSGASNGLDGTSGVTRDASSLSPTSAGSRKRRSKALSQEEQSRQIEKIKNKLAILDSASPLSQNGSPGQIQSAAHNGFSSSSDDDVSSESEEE
Procedure: Yeast strains were distributed in 96‐well microplates containing SC(MSG)‐U medium (SC‐U medium with 0.1% monosodium glutamate instead of ammonium sulfate as a nitrogen source) and grown at 30 °C. 40 µL of exponentially growing cells were transferred in white 96‐well half‐area microplates (ProxiPlate Plus, Greiner Bio‐One) previously filled with 40 µL per well of SC(MSG) containing 100 µM furimazine. The microplates were then incubated for 10 min in the dark before the luminescence signals were recorded using a microplate reader (Ensight, PerkinElmer). Luminescence measurements were performed for 1 s per well at a distance of 0.1 mm between the plate and the detector. The luminescence values were normalized with the optical density (OD600) of the corresponding cultures. For NanoBiT assays with BET inhibitors, yeast cultures were grown overnight at 30 °C in SC(MSG) medium in the presence of serial dilutions of 24c and I‐BET726. Overnight cultures were diluted 5 fold in SC(MSG) and incubated for 1 h before luminescence was recorded as previously indicated. Luminescence values for each condition were normalized using the average of the luminescence recorded for the Bdf1/Swc4 and Bmh1/Bmh2 controls.

[2] = read-out: HTRF signal, normalized (Figure 5A data)

SMILES: CC(=O)N1c2ccc(-c3ccc(C(=O)O)cc3)cc2C(Nc2ccc(Cl)cc2)CC1C (stereo not drawn) [I-BET726]
- HTRF signal, normalized (Figure 5A data) (CgBdf1 BD1; 0.00524 µM): 100.65 and 90.91 and 103.41
- activity at 0.01311 µM (CgBdf1 BD1; 4 h, CgBD1, 13.11 nM, read-out: HTRF signal, normalized (Figure 5A data)): 104%
- activity at 0.03277 µM (CgBdf1 BD1; 4 h, CgBD1, 32.77 nM, read-out: HTRF signal, normalized (Figure 5A data)): 101%
- activity at 0.08192 µM (CgBdf1 BD1; 4 h, CgBD1, 81.92 nM, read-out: HTRF signal, normalized (Figure 5A data)): 100%
- activity at 0.2048 µM (CgBdf1 BD1; 4 h, CgBD1, 204.8 nM, read-out: HTRF signal, normalized (Figure 5A data)): 95.5%
- activity at 0.512 µM (CgBdf1 BD1; 4 h, CgBD1, 512 nM, read-out: HTRF signal, normalized (Figure 5A data)): 85.3%
- activity at 3.2 µM (CgBdf1 BD1; 4 h, CgBD1, 3200 nM, read-out: HTRF signal, normalized (Figure 5A data)): 40.5%
- activity at 8 µM (CgBdf1 BD1; 4 h, CgBD1, 8000 nM, read-out: HTRF signal, normalized (Figure 5A data)): 10.1%
- activity at 0.00524 µM (CgBdf1 BD1; 4 h, read-out: HTRF signal, normalized (Figure 5A data)): 103%
- HTRF signal, normalized (Figure 5A data) (CgBdf1 BD1; CgBD1, 2.10 nM, 0.0021 µM): 106.06 and 99.07 and 83.43 and 98.63
- HTRF signal, normalized (Figure 5A data) (CgBdf1 BD1; CgBD1, 13.11 nM, 0.01311 µM): 90.77 and 95.51 and 103.15
- HTRF signal, normalized (Figure 5A data) (CgBdf1 BD1; CgBD1, 32.77 nM, 0.03277 µM): 93.49 and 101.00 and 99.77
- HTRF signal, normalized (Figure 5A data) (CgBdf1 BD1; CgBD1, 204.8 nM, 0.2048 µM): 107.13 and 88.05 and 91.40
- HTRF signal, normalized (Figure 5A data) (CgBdf1 BD1; CgBD1, 512 nM, 0.512 µM): 93.88 and 86.26 and 86.89
- HTRF signal, normalized (Figure 5A data) (CgBdf1 BD1; CgBD1, 1280 nM, 1.28 µM): 77.62 and 66.65 and 70.52
- HTRF signal, normalized (Figure 5A data) (CgBdf1 BD1; CgBD1, 3200 nM, 3.2 µM): 48.37 and 45.98 and 46.29
- HTRF signal, normalized (Figure 5A data) (CgBdf1 BD1; CgBD1, 8000 nM, 8 µM): 13.26 and 14.56 and 18.60
- IC50 (CgBdf1 BD1; Fig 5A, four replicates, read-out: IC50 (μM) BD1, C. gla. Bdf1): 2.52 ± 0.14 µM
- remaining activity at 0.0021 µM (CaBdf1 BD1; CaBD1, 2.10 nM, read-out: HTRF signal, normalized (Figure 5A data)): 103%
- remaining activity at 0.01311 µM (CaBdf1 BD1; CaBD1, 13.11 nM, read-out: HTRF signal, normalized (Figure 5A data)): 96%
- remaining activity at 0.03277 µM (CaBdf1 BD1; CaBD1, 32.77 nM, read-out: HTRF signal, normalized (Figure 5A data)): 90.6%
- remaining activity at 0.08192 µM (CaBdf1 BD1; CaBD1, 81.92 nM, read-out: HTRF signal, normalized (Figure 5A data)): 66.5%
- remaining activity at 0.2048 µM (CaBdf1 BD1; CaBD1, 204.8 nM, read-out: HTRF signal, normalized (Figure 5A data)): 27%
- remaining activity at 0.512 µM (CaBdf1 BD1; CaBD1, 512 nM, read-out: HTRF signal, normalized (Figure 5A data)): 5.16%
- IC50 (CaBdf1 BD1; Fig 5A, four replicates, read-out: IC50 (μM) BD1, C. alb. Bdf1): 0.27 ± 0.02 µM
- remaining activity at 0.00524 µM (CaBdf1 BD1; [2]): 103%
- remaining activity at 0.01311 µM (CaBdf1 BD1; [2]): 99.9%
- remaining activity at 1.28 µM (CaBdf1 BD1; [2]): 2.74%
- remaining activity at 3.2 µM (CaBdf1 BD1; [2]): 1.61%
- remaining activity at 0.0021 µM (C. auris Bdf1 BD1; CauBD1, 2.10 nM, read-out: HTRF signal, normalized (Figure 5A data)): 105%
- remaining activity at 0.01311 µM (C. auris Bdf1 BD1; CauBD1, 13.11 nM, read-out: HTRF signal, normalized (Figure 5A data)): 103%
- remaining activity at 0.03277 µM (C. auris Bdf1 BD1; CauBD1, 32.77 nM, read-out: HTRF signal, normalized (Figure 5A data)): 106%
- remaining activity at 0.2048 µM (C. auris Bdf1 BD1; CauBD1, 204.8 nM, read-out: HTRF signal, normalized (Figure 5A data)): 107%
- remaining activity at 1.28 µM (C. auris Bdf1 BD1; CauBD1, 1280 nM, read-out: HTRF signal, normalized (Figure 5A data)): 100%
- remaining activity at 3.2 µM (C. auris Bdf1 BD1; CauBD1, 3200 nM, read-out: HTRF signal, normalized (Figure 5A data)): 74.9%
- remaining activity at 8 µM (C. auris Bdf1 BD1; CauBD1, 8000 nM, read-out: HTRF signal, normalized (Figure 5A data)): 34.7%
- IC50 (C. auris Bdf1 BD1; Fig 5A, four replicates, read-out: IC50 (μM) BD1, C. aur. Bdf1): 14.7 ± 0.1 µM
- remaining activity at 0.00524 µM (C. auris Bdf1 BD1; [2]): 103%
- remaining activity at 0.512 µM (C. auris Bdf1 BD1; [2]): 103%
- remaining activity at 24.41 µM ([1]; Bdf1-SmBiT, Htz1-LgBiT, 0.02441 mM, Fig 4C, read-out: Normalized nanoBiT signal): 92%
- remaining activity at 97.66 µM ([1]; Bdf1-SmBiT, Htz1-LgBiT, 0.09766 mM, Fig 4C, read-out: Normalized nanoBiT signal): 93%
- remaining activity at 195.31 µM ([1]; Bdf1-SmBiT, Htz1-LgBiT, 0.19531 mM, Fig 4C, read-out: Normalized nanoBiT signal): 96%
- remaining activity at 390.63 µM ([1]; Bdf1-SmBiT, Htz1-LgBiT, 0.39063 mM, Fig 4C, read-out: Normalized nanoBiT signal): 92%
- remaining activity at 781.25 µM ([1]; Bdf1-SmBiT, Htz1-LgBiT, 0.78125 mM, Fig 4C, read-out: Normalized nanoBiT signal): 83%
- remaining activity at 1562.5 µM ([1]; Bdf1-SmBiT, Htz1-LgBiT, 1.56250 mM, Fig 4C, read-out: Normalized nanoBiT signal): 65%
- remaining activity at 3125 µM ([1]; Bdf1-SmBiT, Htz1-LgBiT, 3.12500 mM, Fig 4C, read-out: Normalized nanoBiT signal): 46%
- remaining activity ([1]; Bdf1-SmBiT, Htz1-LgBiT, […], Fig 4C, read-out: Normalized nanoBiT signal): 39%
- IC50 ([1]; mean and s.d., 4 independent experiments, read-out: IC50 (μM) (ScBdf1 / H2A.Z) NanoBiT signal): 2.1 µM
